Experimental data: ChEMBL document CHEMBL3045226, “Synthesis and anti-tubercular evaluation of some novel pyrazolo[3,4-d]pyrimidine derivatives” (2012)

What was measured:
[1] = test system: Mycobacterium tuberculosis; assay: Antimicrobial activity against Mycobacterium tuberculosis H37Rv; assay type: functional
[2] = test system: Mycobacterium tuberculosis; assay: Antimicrobial activity against Mycobacterium tuberculosis H37Rv at < 6.25 ug/ml; assay type: functional

Row | SMILES | MIC [1] [µg/mL] | inhibition (INH) [2] [%]
1 | CC1=NN(c2ccc3c(c2)Nc2ccccc2S3)C2N=C(S)NC(c3ccc(O)cc3)C12 (stereo unspecified) | > 6.25 | 68
2 | CC1=NN(c2ccc3c(c2)Nc2ccccc2S3)C2N=C(S)NC(c3ccccc3Cl)C12 (stereo unspecified) | < 6.25 | 91
3 | CC1=NN(c2ccc3c(c2)Nc2ccccc2S3)C2N=C(S)NC(c3ccc(Cl)cc3)C12 (stereo unspecified) | > 6.25 | 74
4 | CC1=NN(c2ccc3c(c2)Nc2ccccc2S3)C2N=C(S)NC(c3ccccc3[N+](=O)[O-])C12 (stereo unspecified) | < 6.25 | 96
5 | CC1=NN(c2ccc3c(c2)Nc2ccccc2S3)C2N=C(S)NC(c3ccc([N+](=O)[O-])cc3)C12 (stereo unspecified) | > 6.25 | 54
6 | COc1ccc(C2NC(S)=NC3C2C(C)=NN3c2ccc3c(c2)Nc2ccccc2S3)cc1 (stereo unspecified) | > 6.25 | 63
7 | CC1=NN(c2ccc3c(c2)Nc2ccccc2S3)C2N=C(S)NC(c3ccccc3)C12 (stereo unspecified) | > 6.25 | 75
8 | CC1=NN(c2ccc3c(c2)Nc2ccccc2S3)C2N=C(S)NC(c3ccccc3O)C12 (stereo unspecified) | < 6.25 | 93
